Drawing on ChEMBL document CHEMBL3045395, “Synthesis and reactive oxygen species scavenging activity of halogenated alkaloids from boldine” (Med Chem Res, 2012), this text covers inhibition, Activity and IC50 for seven compounds.

Data set [1] can be described thus: Antioxidant activity in Homo sapiens (human) PMNC assessed as inhibition of fMLP-induced ROS generation at 100 uM incubated for 30 min prior to fMLP-induction measured every 4 secs for 100 secs by luminol-enhanced chemiluminescence analysis. It is filed as functional.
For data set [2], the target named is Xanthine dehydrogenase/oxidase (Homo sapiens, UniProt P47989). The experiment in a line: Inhibition of xanthine oxidase (unknown origin) using pterine as substrate assessed as rate of isoxantopterine formation by fluorimetric analysis (reference value: 3.25 +/- 0.25 umol/min).
Data set [3] can be described thus: Antioxidant activity assessed as inhibition of hypoxanthine/xanthine oxidase-mediated ROS generation incubated for 5 min prior to xanthine oxidase addition measured every 4 secs for 100 secs by luminol-enhanced chemiluminescence analysis. Type of data set: functional.
A short description of data set [4]: (§1) Antioxidant activity in Homo sapiens (human) PMNC assessed as inhibition of fMLP-induced ROS generation incubated for 30 min prior to fMLP-induction measured every 4 secs for 100 secs by luminol-enhanced chemiluminescence analysis. Type of data set: functional.
The species entered for the next data set is Homo sapiens. Described as §1. Type of data set: functional.

Chain of Xanthine dehydrogenase/oxidase (P47989 whole entry): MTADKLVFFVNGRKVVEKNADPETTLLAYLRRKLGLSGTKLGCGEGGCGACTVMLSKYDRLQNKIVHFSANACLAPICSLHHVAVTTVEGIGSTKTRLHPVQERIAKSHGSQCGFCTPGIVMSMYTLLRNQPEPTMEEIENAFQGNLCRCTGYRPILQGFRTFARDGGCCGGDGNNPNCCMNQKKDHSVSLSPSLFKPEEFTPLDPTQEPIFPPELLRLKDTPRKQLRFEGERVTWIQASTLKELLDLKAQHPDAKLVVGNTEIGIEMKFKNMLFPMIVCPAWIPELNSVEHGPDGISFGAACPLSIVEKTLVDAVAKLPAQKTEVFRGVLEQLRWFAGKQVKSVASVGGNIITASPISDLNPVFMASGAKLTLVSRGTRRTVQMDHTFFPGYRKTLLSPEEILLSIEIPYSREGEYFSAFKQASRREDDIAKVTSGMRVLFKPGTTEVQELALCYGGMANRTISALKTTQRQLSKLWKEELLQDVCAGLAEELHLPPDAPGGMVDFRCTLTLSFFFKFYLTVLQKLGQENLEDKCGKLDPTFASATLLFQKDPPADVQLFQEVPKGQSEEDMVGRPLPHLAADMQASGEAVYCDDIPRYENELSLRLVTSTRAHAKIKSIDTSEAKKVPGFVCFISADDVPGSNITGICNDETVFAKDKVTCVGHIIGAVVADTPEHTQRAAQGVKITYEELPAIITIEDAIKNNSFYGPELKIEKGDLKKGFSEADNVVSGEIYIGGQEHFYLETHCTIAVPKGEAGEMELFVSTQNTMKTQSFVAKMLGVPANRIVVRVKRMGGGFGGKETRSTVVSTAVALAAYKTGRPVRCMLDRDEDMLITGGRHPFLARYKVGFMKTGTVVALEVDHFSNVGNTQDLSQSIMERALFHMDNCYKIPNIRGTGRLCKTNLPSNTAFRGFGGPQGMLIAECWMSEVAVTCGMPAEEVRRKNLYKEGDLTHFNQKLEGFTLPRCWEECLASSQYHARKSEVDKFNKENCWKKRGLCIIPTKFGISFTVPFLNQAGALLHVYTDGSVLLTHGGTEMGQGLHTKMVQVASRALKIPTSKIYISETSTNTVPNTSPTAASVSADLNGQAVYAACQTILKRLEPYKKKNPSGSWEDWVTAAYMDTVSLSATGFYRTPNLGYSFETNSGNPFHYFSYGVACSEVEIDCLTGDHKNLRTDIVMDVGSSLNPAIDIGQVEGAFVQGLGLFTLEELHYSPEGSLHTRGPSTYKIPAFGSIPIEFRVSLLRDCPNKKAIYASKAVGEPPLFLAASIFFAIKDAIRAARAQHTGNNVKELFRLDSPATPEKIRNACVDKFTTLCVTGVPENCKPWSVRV

`COc1cc2ccc3c(CC[N+](C)(C)C)c(Br)c(OC)c(OC)c3c2cc1OC.[I-]`: in data set [1], the inhibition at 100 µM turned out to be 62%. In data set [2], the Activity turned out to be 3.45 µmol/min. Moreover, in data set [3], the IC50 came to 3010 nM and the inhibition result is “Dose-dependent effect”.
As to `COc1cc2c(ccc3c(CC[N+](C)(C)C)c(Br)c(O)c(OC)c32)cc1O.[I-]`, the Activity in data set [2] came out at 3.6 µmol/min. Further, the IC50 in data set [3] came out at 2110 nM; in data set [4], 740 nM. The inhibition entry (in data set [3]; in the data set listed under Homo sapiens) was “Dose-dependent effect” each time.
Regarding `COc1cc2c(ccc3c(CCN(C)C)c(Br)c(O)c(OC)c32)cc1O` [2-BROMO-N-METHYLSECOBOLDINE], the Activity in data set [2] came out at 3.98 µmol/min. The IC50 in data set [3] is 190 nM; in data set [4], 780 nM. Also, the inhibition result (in data set [3]; in the data set filed under Homo sapiens) was “Dose-dependent effect” in each case.
Regarding `CNCCc1c(Br)c(O)c(OC)c2c1ccc1cc(O)c(OC)cc12` [2-BROMOSECOBOLDINE], the Activity in data set [2] was found to be 2.82 µmol/min. The IC50 in data set [3] was 160 nM; in data set [4] it was 640 nM. For the same compound, the inhibition result (in data set [3]; in the data set filed under Homo sapiens) was “Dose-dependent effect” throughout.
With `COc1cc2c(cc1O)C[C@H]1c3c(c(Br)c(O)c(OC)c3-2)CC[N+]1(C)C.[I-]` [3-BROMO-N-METHYLBOLDINE IODIDE], the Activity in data set [2] came out at 3.77 µmol/min. Besides, the results for the IC50 in data set [3] and in data set [4] were 2000 nM and 1270 nM, respectively. Besides, the inhibition entry (in data set [3]; in the data set listed under Homo sapiens) was “Dose-dependent effect” in each case.
Turning to `COc1cc2c(cc1O)C[C@H]1c3c(c(Br)c(O)c(OC)c3-2)CCN1C` [3-BROMOBOLDINE], in data set [2], the Activity turned out to be 4.09 µmol/min. Moreover, the IC50 is 550 nM in data set [3] and 810 nM in data set [4]. In addition, the inhibition entry (in data set [3]; in the data set filed under Homo sapiens) was “Dose-dependent effect” each time.
As to `O=C1O[C@H]([C@@H](O)CO)C(O)=C1O` [ASCORBIC ACID], the IC50 in data set [4] was determined as 168000 nM.
